Assay results as given in patent US7432256B2, “Substitued imidazo [1,5-A][1,2,4]triazolo[1,5-D][1,4]benzodiazepine derivatives” (Hoffman-La Roche Inc., priority 2004, dated 2008).
Counter-ions that a name gives are not always drawn. Like-named read-outs stand apart in the source and are kept apart here.

Tests used:
[1] = molecular target: T1, GABA A receptor a1b3g2 (hα1) (Homo sapiens, UniProt P14867+P18507); experiment: [3H]flumazenil competition binding, GABA A a1b3g2 receptors in HEK293 cells
T1 construct: expressed in transfected cells; host or cells: HEK293 (transient transfection), membranes
Procedure: (§1) Membrane Preparation and Binding Assay
(§2) The affinity of compounds at GABA A receptor subtypes was measured by competition for [3H]flumazenil (85 Ci/mmol; Roche) binding to HEK293 cells expressing rat (stably transfected) or human (transiently transfected) receptors of composition a1b3g2, a2b3g2, a3b3g2 and a5b3g2.
(§3) Cell pellets were suspended in Krebs-tris buffer (4.8 mM KCl, 1.2 mM CaCl2, 1.2 mM MgCl2, 120 mM NaCl, 15 mM Tris; pH 7.5; binding assay buffer), homogenized by polytron for ca. 20 sec on ice and centrifuged for 60 min at 4° C. (50000 g; Sorvall, rotor: SM24=20000 rpm). The cell pellets were resuspended in Krebs-tris buffer and homogenized by polytron for ca. 15 sec on ice. Protein was measured (Bradford method, Bio-Rad) and aliquots of 1 mL were prepared and stored at −80° C.
(§4) Assays were incubated to equilibrium for 1 hour at 4° C. and harvested onto GF/C uni-filters (Packard) by filtration using a Packard harvester and washing with ice-cold wash buffer (50 mM Tris; pH 7.5). After drying, filter-retained radioactivity was detected by liquid scintillation counting. Ki values were calculated using Excel-Fit (Microsoft) and are the means of two determinations.
(§5) The major important difference is change from SF9 to HEK293 cells (which are human transiently transfected).

[2] = molecular target: T2, GABA A receptor a5b3g2 (hα5) (Homo sapiens, UniProt P18507+P31644); experiment: [3H]flumazenil competition binding, GABA A a5b3g2 receptors in HEK293 cells
T2 construct: expressed in transfected cells; host or cells: HEK293 (transient transfection), membranes
Procedure: as §1, §2, §3, §4, §5

[3] = molecular target: T3, GABA A receptor a3b3g2 (hα3) (Homo sapiens, UniProt P18507+P34903); experiment: [3H]flumazenil competition binding, GABA A a3b3g2 receptors in HEK293 cells
T3 construct: expressed in transfected cells; host or cells: HEK293 (transient transfection), membranes
Procedure: as §1, §2, §3
(§6) Radioligand binding assays were carried out in a volume of […] (96-well plates) which contained […] of cell memebranes, [3H]flumazenil at a concentration of 1 nM for a1, a2, a3 subunits and 0.5 nM for a5 subunits and the test compound in the range of 10-10-3×10^-6 M. Nonspecific binding was defined by 10^-5 M diazepam and typically represented less than 5% of the total binding. Assays were incubated to equilibrium for 1 hour at 4° C. and harvested onto GF/C uni-filters (Packard) by filtration using a Packard harvester and washing with ice-cold wash buffer (50 mM Tris; pH 7.5). After drying, filter-retained radioactivity was detected by liquid scintillation counting. Ki values were calculated using Excel-Fit (Microsoft) and are the means of two determinations.
as §5

[4] = molecular target: T4, GABA A receptor a2b3g2 (hα2) (Homo sapiens, UniProt P18507+P47869); experiment: [3H]flumazenil competition binding, GABA A a2b3g2 receptors in HEK293 cells
T4 construct: expressed in transfected cells; host or cells: HEK293 (transient transfection), membranes
Procedure: as §1, §2, §3, §6, §5

[5] = [3H]flumazenil 0.5 nM, HEK293 membranes, human transiently transfected, mean of two determinations, read-out: Ki[nM] hα5
[6] = [3H]flumazenil 1 nM, HEK293 membranes, human transiently transfected, mean of two determinations, read-out: Ki[nM] hα1
[7] = [3H]flumazenil 1 nM, HEK293 membranes, human transiently transfected, mean of two determinations, read-out: Ki[nM] hα3
[8] = [3H]flumazenil 1 nM, HEK293 membranes, human transiently transfected, mean of two determinations, read-out: Ki[nM] hα2

Compound	Ki [1]	Ki [2, 5]	Ki [3]	Ki [4]	Ki [1, 6]	Ki [3, 7]	Ki [4, 8]	Ki [2]
Clc1ccc2c(c1)-c1ncnn1Cc1c(C#Cc3ccccc3)ncn1-2 [Example 30, 3-Chloro-10-phenylethynyl-9H-imidazo[1,5-a][1,2,4]triazolo[1,5-d][1,4]benzodiazepine]	13.3 nM	1.2 nM	–	–	–	–	–	–
CCCc1ncn2c1Cn1ncnc1-c1cc(Br)ccc1-2 [Example 42, 3-Bromo-10-propyl-9H-imidazo[1,5-a][1,2,4]triazolo[1,5-d][1,4]benzodiazepine]	10.6 nM	1.4 nM	–	–	–	–	–	–
Cc1ncn2c1Cn1ncnc1-c1c(F)cccc1-2 [Example 57, 4-Fluoro-10-methyl-9H-imidazo[1,5-a][1,2,4]triazolo[1,5-d][1,4]benzodiazepine]	4.7 nM	1 nM	6.3 nM	12.8 nM	–	–	–	–
Fc1cccc(C#Cc2ncn3c2Cn2ncnc2-c2cc(F)ccc2-3)c1 [Example 31, 3-Fluoro-10-(3-fluoro-phenylethynyl)-9H-imidazo[1,5-a][1,2,4]triazolo[1,5-d][1,4]benzodiazepine]	5.5 nM	1.6 nM	3.6 nM	4.5 nM	–	–	–	–
3-Fluoro-10-(3-methoxy-phenylethynyl)-9H-imidazo[1,5-a][1,2,4]triazolo[1,5-d][1,4]benzodiazepine [Example 34]	–	1.1 nM	–	–	14.1 nM	–	–	–
C#Cc1ncn2c1Cn1ncnc1-c1cc(Br)ccc1-2 [Example 27, 3-Bromo-10-ethynyl-9H-imidazo[1,5-a][1,2,4]triazolo[1,5-d][1,4]benzodiazepine]	20.3 nM	0.9 nM	11.9 nM	19 nM	–	–	–	–
C#Cc1ncn2c1Cn1ncnc1-c1cc(Cl)ccc1-2 [Example 26, 3-Chloro-10-ethynyl-9H-imidazo[1,5-a][1,2,4]triazolo[1,5-d][1,4]benzodiazepine]	4.6 nM	0.5 nM	3.5 nM	6.4 nM	–	–	–	–
C/C=C/c1ncn2c1Cn1ncnc1-c1cc(Cl)ccc1-2 [Example 21, 3-Chloro-10-(E)-propenyl-9H-imidazo[1,5-a][1,2,4]triazolo[1,5-d][1,4]benzodiazepine]	5.2 nM	0.4 nM	4.8 nM	6.9 nM	–	–	–	–
CCc1ncn2c1Cn1ncnc1-c1cc(Cl)ccc1-2 [Example 10, 3-Chloro-10-ethyl-9H-imidazo[1,5-a][1,2,4]triazolo[1,5-d][1,4]benzodiazepine]	15.4 nM	2.1 nM	7 nM	9.6 nM	–	–	–	–
CCc1ncn2c1Cn1ncnc1-c1cc(OC)ccc1-2 [Example 11, 10-Ethyl-3-methoxy-9H-imidazo[1,5-a][1,2,4]triazolo[1,5-d][1,4]benzodiazepine]	26.7 nM	3.8 nM	39.1 nM	84.6 nM	–	–	–	–
Cc1ncn2c1Cn1ncnc1-c1ccccc1-2 [Example 1, 10-Methyl-9H-imidazo[1,5-a][1,2,4]triazolo[1,5-d][1,4]benzodiazepine]	41.6 nM	2.6 nM	10.1 nM	15.5 nM	–	–	–	–
C=Cc1ncn2c1Cn1ncnc1-c1cc(Cl)ccc1-2 [Example 20, 3-Chloro-10-vinyl-9H-imidazo[1,5-a][1,2,4]triazolo[1,5-d][1,4]benzodiazepine]	35.8 nM	2.2 nM	20.8 nM	33.6 nM	–	–	–	–
Cc1ncn2c1Cn1ncnc1-c1cc(F)ccc1-2 [Example 2, 3-Fluoro-10-methyl-9H-imidazo[1,5-a][1,2,4]triazolo[1,5-d][1,4]benzodiazepine]	18.2 nM	3 nM	10.8 nM	9.1 nM	–	–	–	–
Fc1ccc2c(c1)-c1ncnn1Cc1c(C#Cc3cccc(C(F)(F)F)c3)ncn1-2 [Example 33, 3-Fluoro-10-(3-trifluoromethyl-phenylethynyl)-9H-imidazo[1,5-a][1,2,4]triazolo[1,5-d][1,4]benzodiazepine]	3.4 nM	1.2 nM	–	–	–	–	–	–
CCc1ncn2c1Cn1ncnc1-c1cc(F)ccc1-2 [Example 9, 10-Ethyl-3-fluoro-9H-imidazo[1,5-a][1,2,4]triazolo[1,5-d][1,4]benzodiazepine]	7.9 nM	0.5 nM	1.3 nM	1.9 nM	–	–	–	–
Cc1ncn2c1Cn1ncnc1-c1cc(I)ccc1-2 [Example 53, 3-Iodo-10-methyl-9H-imidazo[1,5-a][1,2,4]triazolo[1,5-d][1,4]benzodiazepine hydrochloride (1:1)]	–	–	–	–	184 nM	126 nM	261 nM	4.3 nM
Clc1ccc2c(c1)-c1ncnn1Cc1c(/C=C/C3CC3)ncn1-2 [Example 23, 3-Chloro-10-((E)-2-cyclopropyl-vinyl)-9H-imidazo[1,5-a][1,2,4]triazolo[1,5-d][1,4]benzodiazepine]	26.9 nM	3.7 nM	32.5 nM	41 nM	–	–	–	–
FC(F)Cc1ncn2c1Cn1ncnc1-c1ccccc1-2 [Example 41, 10-(2,2-Difluoro-ethyl)-9H-imidazo[1,5-a][1,2,4]triazolo[1,5-d][1,4]benzodiazepine]	13.5 nM	1 nM	7 nM	14.4 nM	–	–	–	–
Clc1ccc2c(c1)-c1ncnn1Cc1c(CC3CC3)ncn1-2 [Example 14, 3-Chloro-10-cyclopropylmethyl-9H-imidazo[1,5-a][1,2,4]triazolo[1,5-d][1,4]benzodiazepine]	4.9 nM	1.7 nM	6.1 nM	10.2 nM	–	–	–	–
Cc1ncn2c1Cn1ncnc1-c1cc(Cl)ccc1-2 [Example 3, 3-Chloro-10-methyl-9H-imidazo[1,5-a][1,2,4]triazolo[1,5-d][1,4]benzodiazepine]	18.5 nM	–	–	–	–	265 nM	219 nM	3 nM
C=Cc1ncn2c1Cn1ncnc1-c1cc(F)ccc1-2 [Example 19, 3-Fluoro-10-vinyl-9H-imidazo[1,5-a][1,2,4]triazolo[1,5-d][1,4]benzodiazepine]	7.8 nM	11 nM	2.3 nM	5.9 nM	–	–	–	–
CC(C)c1cccc(C#Cc2ncn3c2Cn2ncnc2-c2cc(F)ccc2-3)c1 [Example 36, 3-Fluoro-10-(3-isopropyl-phenylethynyl)-9H-imidazo[1,5-a][1,2,4]triazolo[1,5-d][1,4]benzodiazepine]	4 nM	1.5 nM	–	–	–	–	–	–
FC(F)=Cc1ncn2c1Cn1ncnc1-c1ccccc1-2 [Example 40, 10-(2,2-Difluoro-vinyl)-9H-imidazo[1,5-a][1,2,4]triazolo[1,5-d][1,4]benzodiazepine]	8.5 nM	0.5 nM	2.3 nM	3.7 nM	–	–	–	–
CCCc1ncn2c1Cn1ncnc1-c1cc(Cl)ccc1-2 [Example 12, 3-Chloro-10-propyl-9H-imidazo[1,5-a][1,2,4]triazolo[1,5-d][1,4]benzodiazepine]	4.2 nM	1.6 nM	5.6 nM	7.9 nM	–	–	–	–
C=Cc1ncn2c1Cn1ncnc1-c1ccccc1-2 [Example 18, 10-Vinyl-9H-imidazo[1,5-a][1,2,4]triazolo[1,5-d][1,4]benzodiazepine]	12.8 nM	0.8 nM	3.7 nM	5.7 nM	–	–	–	–
CC(C)(O)C#Cc1ncn2c1Cn1ncnc1-c1cc(Cl)ccc1-2 [Example 28, 3-Chloro-10-(3-hydroxy-3-methyl-but-1-ynyl)-9H-imidazo[1,5-a][1,2,4]triazolo[1,5-d][1,4]benzodiazepine]	91 nM	3.6 nM	–	–	–	–	–	–
